# US8828678B2, “Self-immolative probes for enzyme activity detection” (Enzo Life Sciences, Inc., priority 2010, dated 2014)
# What was measured:
# Jurkat cells = assay: Combined detection of hypoxia and superoxide in live cells by flow cytometry; assay type: cell-based, human; details: CD-1 5 μM in combination with superoxide detection reagent, flow cytometry
# Method: HeLa, U-2 OS, and Jurkat cell lines were cultured as described in Examples 7 and 9. Stock solutions of the probes and inhibitors were prepared as described in Examples 7 and 10.
# The day before the experiment, HeLa and U-2 OS cells were seeded in 6-well tissue culture plates at a density of 5×10^5 cells/well. Jurkat cells were collected in logarithmic phase of growth and aliquoted at a density of 5×10^5 cells/sample. On the day of the experiment, the cells were preloaded with either hypoxia or ROS-detecting probes only or with the combination of hypoxia and ROS-detecting probes with compatible spectral characteristics. Samples stained with single hypoxia probes or with two ROS-detecting probes were made to validate data obtained with the combination of hypoxia and redox probes. The probes used in the experiment and their final concentrations in cell culture medium were as follows: CD-1(5 μM) and CD-6 (1 μM), DCFDA, peroxide/peroxynitrite/hydroxyl detection probe and HE, specific superoxide detection reagent (1 μM for both redox probes). Hypoxia was induced in the cells as described in Example 7. Additionally, cells were treated with different general and specific ROS inducers and stained with ROS-detecting probes to control ROS production and staining. Post-treatment, the adherent cells (HeLa and U-2 OS) were collected by trypsinization, re-suspended in 0.5 mL of fresh PBS and analyzed using flow cytometry. Jurkat cells were analyzed without washing. Flow cytometry experiments were performed using an FACS Calibur benchtop flow cytometer (BD Biosciences) equipped with a blue (488 nm) laser, and the fluorescence was recorded in the FITC (530/30 filter), PE (585/42 filter) and PerCP (670 LP filter) channels. Data were collected uncompensated, also compensation corrections were performed using unstained cells, and cells stained with each single dye separately (CD-1, CD-6, DCFDA or HE). To quantify data, quadrant gates were set using untreated samples.
# hypoxic HeLa cells = assay: Detection of hypoxia with hypoxia markers using fluorescence microscopy; assay type: cell-based, human; details: 5 μM, 3.5 h, chemical induction of hypoxia (CoCl2, DFO, DMOG) or anoxic treatment, FITC filter
# Method: The human cervical adenocarcinoma epithelial cell line HeLa, U-2 OS human bone osteosarcoma cell line and hamster ovary CHO K1 cell line were obtained from ATTC. HeLa cells were routinely cultured in Eagle's Minimum Essential Medium with low glucose (ATCC), supplemented with 10% fetal bovine serum (ATCC) and 100 U/ml penicillin, 100 μg/ml streptomycin (Sigma-Aldrich, St. Louis, Mo.). U-2 OS cells were routinely cultured in McCoy's 5a Modified Medium (ATCC), supplemented with 10% fetal bovine serum heat (ATCC) and 100 U/ml penicillin+100 μg/ml streptomycin (Sigma-Aldrich). […]
# The day before the experiment, the cells were seeded on 4-well microscope slides (Cel-Line™ Brand, Portsmouth, N.H.) at a density 1×10^4 cells/well (2×10^4 cells/cm^2). […] Post-treatment, the slides were washed twice with PBS, coverslipped and visualized using an Olympus BX-51 fluorescence microscope (FITC filter set, 490ex/525em).
# In parallel, the hypoxia cellular state was detected using the hypoxia detecting reagent pimonidazole (Varia et al., 1998; Young, 1977). […] Slides were stained with a 1:100 dilution of FITC-MAb1 against pimonidazole (HP-1 kit from Hypoxyprobe) for 45 min at 4° C., washed twice with PBS, coverslipped and visualized using an Olympus BX-51 fluorescence microscope equipped with an FITC filter set (490ex/525em). […]
structure (smiles),measurement,setting,value
O=C(Nc1ccc2c(c1)Oc1cc(NC(=O)N3CCOCC3)ccc1C21OC(=O)c2ccccc21)OCc1ccc([N+](=O)[O-])cc1 (centres unmarked) [CD-1],population of green positive cells in hypoxia-induced Jurkat samples,Jurkat cells,increased population of green positive cells
same,fluorescence signal in hypoxic HeLa cells,hypoxic HeLa cells,bright fluorescence signal
